Laboratory results as given in ChEMBL document CHEMBL3351921, “Structure-activity relationships (SAR) and structure-kinetic relationships (SKR) of pyrrolopiperidinone acetic acids as CRTh2 antagonists” (Bioorg Med Chem Lett, 2014).
≈ marks a conversion by molar mass, not a printed value. Calls of active or inactive are those of the source. The calls are words filed in the database; no cut-off is given here.

Experiments:
[1] = Lipophilicity, log D of the compound by shake-flask method; assay type: physicochemical; conditions: octanol/water
[2] = target: T1, Prostaglandin D2 receptor (Homo sapiens) (UniProt Q13258); assay: Inhibition of at prostanoid DP1 receptor (unknown origin) at 10 uM
T1 sequence (whole entry): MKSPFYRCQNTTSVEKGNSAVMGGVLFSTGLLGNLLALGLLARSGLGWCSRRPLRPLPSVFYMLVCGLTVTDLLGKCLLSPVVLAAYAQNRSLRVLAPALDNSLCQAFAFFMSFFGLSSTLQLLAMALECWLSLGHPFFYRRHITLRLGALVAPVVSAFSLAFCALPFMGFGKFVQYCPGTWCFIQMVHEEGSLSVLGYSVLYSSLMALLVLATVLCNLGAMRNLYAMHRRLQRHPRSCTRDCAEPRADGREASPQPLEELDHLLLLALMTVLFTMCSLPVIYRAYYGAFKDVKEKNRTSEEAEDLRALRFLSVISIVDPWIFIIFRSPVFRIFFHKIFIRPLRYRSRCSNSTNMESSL

[3] = target: T2, Prostaglandin D2 receptor 2 (Homo sapiens, UniProt Q9Y5Y4); assay: Antagonist activity at CRTh2 (unknown origin) stably expressed in PGD2-stimulated CHO.K1 cells preincubated for 120 mins by radio-labelled [35S]-GTPgammaS binding assay; assay type: functional, cell-based
T2 sequence (Q9Y5Y4 whole entry): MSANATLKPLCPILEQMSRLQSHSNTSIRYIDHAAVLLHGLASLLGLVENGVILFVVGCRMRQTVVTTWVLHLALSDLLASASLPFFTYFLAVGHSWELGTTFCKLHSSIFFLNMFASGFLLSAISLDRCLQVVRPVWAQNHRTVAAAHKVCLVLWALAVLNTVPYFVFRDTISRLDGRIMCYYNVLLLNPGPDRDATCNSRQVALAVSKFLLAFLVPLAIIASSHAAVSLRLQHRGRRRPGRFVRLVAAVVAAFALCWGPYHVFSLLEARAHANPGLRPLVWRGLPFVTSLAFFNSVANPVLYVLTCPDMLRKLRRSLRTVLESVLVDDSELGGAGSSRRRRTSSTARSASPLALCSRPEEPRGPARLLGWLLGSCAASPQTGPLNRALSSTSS

[4] = Aqueous solubility of the compound at pH 7.4; assay type: physicochemical
[5] = target: T2, Prostaglandin D2 receptor 2; assay: Antagonist activity at CRTh2 (unknown origin) stably expressed in PGD2-stimulated CHO.K1 cells preincubated for 15 mins by radio-labelled [35S]-GTPgammaS binding assay; assay type: functional, cell-based
[6] = target: T3, Thromboxane A2 receptor (Homo sapiens) (UniProt P21731); assay: Inhibition of at prostanoid TP receptor (unknown origin) at 10 uM
T3 sequence (whole entry): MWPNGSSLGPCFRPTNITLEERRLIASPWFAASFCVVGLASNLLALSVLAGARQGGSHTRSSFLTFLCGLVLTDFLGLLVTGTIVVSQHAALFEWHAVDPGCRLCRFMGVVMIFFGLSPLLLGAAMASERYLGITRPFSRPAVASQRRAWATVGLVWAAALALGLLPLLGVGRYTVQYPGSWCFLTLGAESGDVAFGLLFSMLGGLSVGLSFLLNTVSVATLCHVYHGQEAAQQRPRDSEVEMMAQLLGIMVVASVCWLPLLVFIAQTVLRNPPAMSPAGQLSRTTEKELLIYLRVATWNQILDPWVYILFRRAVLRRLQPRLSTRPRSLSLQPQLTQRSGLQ

[7] = Dissociation constant, pKa of the compound by potentiometric method; assay type: physicochemical
[8] = target: T2, Prostaglandin D2 receptor 2; assay: Antagonist activity at CRTh2 (unknown origin) stably expressed in CHO.K1 cells co-mixing the compound and PGD2 by radio-labelled [35S]-GTPgammaS binding assay; assay type: functional, cell-based
[9] = target: T2, Prostaglandin D2 receptor 2; assay: Antagonist activity at CRTh2 (unknown origin) stably expressed in CHO.K1 cells preincubated for 1 hr by radio-labelled [35S]-GTPgammaS binding assay in presence of 4% HSA; assay type: functional, cell-based
[10] = target: T4, Prostaglandin D2 receptor 2 (Homo sapiens) (UniProt Q9Y5Y4); conditions: CHO.K1
T4 sequence (whole entry): T2 sequence (Q9Y5Y4 whole entry)
Description: Antagonist activity at CRTh2 (unknown origin) stably expressed in PGD2-stimulated CHO.K1 cells assessed as dissociation half-life at 5 to 10 times IC50 after 2 hrs by radio-labelled [35S]-GTPgammaS binding assay

[11] = target: T2, Prostaglandin D2 receptor 2; assay: Antagonist activity at CRTh2 (unknown origin) stably expressed in PGD2-stimulated CHO.K1 cells preincubated for 1 hr by radio-labelled [35S]-GTPgammaS binding assay; assay type: functional, cell-based
[12] = Apparent permeability across basolateral to apical side of human Caco2 cells at pH 7.4; assay type: ADME, cell-based; conditions: Caco-2, pH 7.4
[13] = Apparent permeability across apical to basolateral side of human Caco2 cells at pH 7.4; assay type: ADME, cell-based; conditions: Caco-2, pH 7.4
[14] = Aqueous solubility of the compound at pH 1; assay type: physicochemical
[15] = target: T2, Prostaglandin D2 receptor 2; assay: Antagonist activity at CRTh2 (unknown origin) stably expressed in PGD2-stimulated CHO.K1 cells preincubated for 60 mins by radio-labelled [35S]-GTPgammaS binding assay; assay type: functional, cell-based
[16] = target: T2, Prostaglandin D2 receptor 2; assay: Antagonist activity at CRTh2 (unknown origin) stably expressed in PGD2-stimulated CHO.K1 cells preincubated for 180 mins by radio-labelled [35S]-GTPgammaS binding assay; assay type: functional, cell-based
[17] = target: T2, Prostaglandin D2 receptor 2; assay: Antagonist activity at CRTh2 (unknown origin) stably expressed in PGD2-stimulated CHO.K1 cells preincubated for 30 mins by radio-labelled [35S]-GTPgammaS binding assay; assay type: functional, cell-based
[18] = Oral bioavailability in rat at 10 mg/kg; assay type: ADME, organism-based; conditions: in vivo
[19] = Volume of distribution at steady state in rat at 1 mg/kg, iv; assay type: ADME, organism-based; parameters: dose 1 mg/kg, route intravenous; conditions: in vivo, read-out: Vdss
[20] = Terminal half life in rat at 1 mg/kg, iv; assay type: ADME, organism-based; parameters: dose 1 mg/kg, route intravenous; conditions: in vivo, read-out: beta t1/2 (converted)
[21] = Cmax in rat at 10 mg/kg, po; assay type: ADME, organism-based; parameters: dose 10 mg/kg, route oral; conditions: in vivo
[22] = AUC (0 to infinity) in rat at 10 mg/kg, po; assay type: ADME, organism-based; parameters: time infinity, dose 10 mg/kg, route oral; conditions: plasma
[23] = Cmax in rat at 1 mg/kg, iv; assay type: ADME, organism-based; parameters: dose 1 mg/kg, route intravenous; conditions: in vivo
[24] = AUC (0 to infinity) in rat at 1 mg/kg, iv; assay type: ADME, organism-based; parameters: time infinity, dose 1 mg/kg, route intravenous; conditions: plasma
[25] = Terminal half life in rat at 10 mg/kg, po; assay type: ADME, organism-based; parameters: dose 10 mg/kg, route oral; conditions: in vivo, read-out: beta t1/2 (converted)
[26] = species: Cavia porcellus; assay: Antiinflammatory activity in guinea pig eosinophilia model; assay type: functional, organism-based
[27] = Clearance in rat at 1 mg/kg, iv; assay type: ADME, organism-based; parameters: dose 1 mg/kg, route intravenous; conditions: in vivo
[28] = tested on: Rattus norvegicus; assay: Volume of distribution at steady state in rat assessed as 2-(2-methyl-4-oxo-3-(2-(phenylsulfonyl)benzyl)-4,5,6,7-tetrahydro-1H-pyrrolo[3,2-c]pyridin-1-yl)acetic acid at 1 mg/kg, iv; assay type: ADME, organism-based; parameters: dose 1 mg/kg, route intravenous; conditions: in vivo
[29] = tested on: Rattus norvegicus; assay: AUC (0 to infinity) in rat assessed as 2-(2-methyl-4-oxo-3-(2-(phenylsulfonyl)benzyl)-4,5,6,7-tetrahydro-1H-pyrrolo[3,2-c]pyridin-1-yl)acetic acid at 1 mg/kg, iv; assay type: ADME, organism-based, Plasma; parameters: time infinity, dose 1 mg/kg, route intravenous; conditions: in vivo
[30] = tested on: Rattus norvegicus; assay: Cmax in rat assessed as 2-(2-methyl-4-oxo-3-(2-(phenylsulfonyl)benzyl)-4,5,6,7-tetrahydro-1H-pyrrolo[3,2-c]pyridin-1-yl)acetic acid at 10 mg/kg, po; assay type: ADME, organism-based; parameters: dose 10 mg/kg, route oral; conditions: in vivo
[31] = tested on: Rattus norvegicus; assay: Cmax in rat assessed as 2-(2-methyl-4-oxo-3-(2-(phenylsulfonyl)benzyl)-4,5,6,7-tetrahydro-1H-pyrrolo[3,2-c]pyridin-1-yl)acetic acid at 1 mg/kg, iv; assay type: ADME, organism-based; parameters: dose 1 mg/kg, route intravenous; conditions: in vivo
[32] = tested on: Rattus norvegicus; assay: Oral bioavailability in rat assessed as 2-(2-methyl-4-oxo-3-(2-(phenylsulfonyl)benzyl)-4,5,6,7-tetrahydro-1H-pyrrolo[3,2-c]pyridin-1-yl)acetic acid at 10 mg/kg; assay type: ADME, organism-based; conditions: in vivo
[33] = tested on: Rattus norvegicus; assay: Terminal half life in rat assessed as 2-(2-methyl-4-oxo-3-(2-(phenylsulfonyl)benzyl)-4,5,6,7-tetrahydro-1H-pyrrolo[3,2-c]pyridin-1-yl)acetic acid at 1 mg/kg, iv; assay type: ADME, organism-based; parameters: dose 1 mg/kg, route intravenous; conditions: in vivo
[34] = tested on: Rattus norvegicus; assay: Terminal half life in rat assessed as 2-(2-methyl-4-oxo-3-(2-(phenylsulfonyl)benzyl)-4,5,6,7-tetrahydro-1H-pyrrolo[3,2-c]pyridin-1-yl)acetic acid at 10 mg/kg, po; assay type: ADME, organism-based; parameters: dose 10 mg/kg, route oral; conditions: in vivo
[35] = tested on: Rattus norvegicus; assay: AUC (0 to infinity) in rat assessed as 2-(2-methyl-4-oxo-3-(2-(phenylsulfonyl)benzyl)-4,5,6,7-tetrahydro-1H-pyrrolo[3,2-c]pyridin-1-yl)acetic acid at 10 mg/kg, po; assay type: ADME, organism-based, Plasma; parameters: time infinity, dose 10 mg/kg, route oral; conditions: in vivo

inhibition [2] | IC50 [3] | IC50 [5] | inhibition [6] | pKa [7] | IC50 [8] | T1/2 [10] | IC50 [11] | Papp A→B [13] | IC50 [15] | IC50 [16] | IC50 [17] | Compound | also measured
< 30% | 3 nM | 4.9 nM | < 30% | 3 | 6.5 nM | 2.3 h | 5 nM | 0.01 ×10⁻⁶ cm/s | 4 nM | 3 nM | 4.5 nM | Cc1c(Cc2ccccc2S(=O)(=O)c2ccccc2)c2c(n1CC(=O)O)CCNC2=O | logD [1]: 0.9; solubility [4]: 870 µg/mL (≈ 1980 µM); IC50 [9]: 10 nM; Papp B→A [12]: 0.1 ×10⁻⁶ cm/s; solubility [14]: 500 µg/mL (≈ 1140 µM)
< 30% | 2.9 nM | 6.3 nM | < 30% | 3 | 7.7 nM | 10 h | 4 nM | 1.1 ×10⁻⁶ cm/s | 4.2 nM | 2.1 nM | 5.5 nM | Cc1c(Cc2ccccc2S(=O)(=O)c2ccccc2)c2c(n1CC(=O)O)CC(C)(C)NC2=O | bioavailability [18]: 1.3%; Vd [19]: 0.19 L/kg; half-life [20]: 0.8 h; Cmax [21]: 126 ng/mL; AUC(0-inf) [22]: 275 ng·h/mL; Cmax [23]: 5490 ng/mL; AUC(0-inf) [24]: 2050 ng·h/mL; half-life [25]: 2.5 h; Activity [26]: Active; clearance [27]: 8.4 mL/min/kg
 |  |  |  |  |  |  |  |  |  |  |  | CCOC(=O)Cn1c(C)c(Cc2ccccc2S(=O)(=O)c2ccccc2)c2c1CCNC2=O | Vdss [28]: 0.25 L/kg; AUC [29]: 1726 ng·h/mL; Cmax [30]: 842 ng/mL; Cmax [31]: 5370 ng/mL; F [32]: 27%; beta t1/2 [33]: 0.3 h; beta t1/2 [34]: 7.4 h; AUC [35]: 4623 ng·h/mL
